Measurements from article PMC5618429, “Kempopeptin C, a Novel Marine-Derived Serine Protease Inhibitor Targeting Invasive Breast Cancer” (Marine Drugs, 2017).
Like-named read-outs stand apart in the source and are kept apart here. One block for each compound: values may come before it.

Columns and labels:
[1] = tested on: trypsin; details: read-out: IC50 trypsin inhibition; cited from earlier work
[2] = tested on: plasmin; design: method as in PMID 20405925; details: read-out: IC50 plasmin inhibition; cited from earlier work
[3] = tested on: CDCP1 cleavage in MDA-MB-231 cells; design: method as in PMID 22543582; details: positive control, through upregulation of PAI-1; cited from earlier work
[4] = tested on: chymotrypsin; design: method as in PMID 18693761; details: cited from earlier work
[5] = biological target: elastase; design: method as in PMID 18693761; details: cited from earlier work
[6] = Cell viability assay (MTT); format: cell-based; details: human, MDA-MB-231 breast cancer cells; MDA-MB-231, 48 h, all concentrations tested (32 µM to 320 pM)
Method: MDA-MB-231 cells were seeded in 96-well plates (10,000 cells/well). After 24 h of incubation, the cells were treated with different concentrations of kempopeptins B or C (2 or 3) or the solvent control (DMSO). Following 48 h of incubation, cell viability was measured using 3-(4,5-dimethylthiazol-2-yl)-2,5-diphenyltetrazolium bromide according to the manufacturer's instructions (Promega, Madison, WI, USA).
Effect of kempopeptins on the viability of MDA-MB-231 cells
Kempopeptin C Kempopeptin B
Figure S1. Effect of kempopeptins B and C (2) and (3) on the viability of MDA -MB-231 breast cancer cells.

[7] = biological target: T1, trypsin from porcine pancreas (Sus scrofa, UniProt P00761); experiment: Trypsin inhibition assay; format: biochemical; details: mean ± SD, n = 3; 30-min preincubation; read-out: IC50 against trypsin
T1 construct: purchased Sigma T0303; host or cells: porcine pancreas
T1 sequence (P00761 9-231): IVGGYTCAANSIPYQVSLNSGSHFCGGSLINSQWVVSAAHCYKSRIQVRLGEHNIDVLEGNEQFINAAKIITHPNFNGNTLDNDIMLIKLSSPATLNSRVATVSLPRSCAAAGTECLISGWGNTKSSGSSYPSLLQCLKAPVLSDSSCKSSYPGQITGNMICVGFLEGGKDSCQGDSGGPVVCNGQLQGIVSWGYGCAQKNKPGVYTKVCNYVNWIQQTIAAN
Method: The trypsin inhibition assay was carried out at room temperature by incubating 10 µL of trypsin from porcine pancreas (T0303, Sigma, St. Louis, MO, USA) (100 µM prepared in assay buffer) with 39 µL of assay buffer (50 mM Tris-HCl, 100 mM NaCl, 1 mM CaCl2; pH 7.8) in the presence of 1 µL of different concentrations of inhibitors (2 and 3; half log dilutions prepared in DMSO) or the solvent control. After a 30-min incubation time, 50 µL of the 1.5 mM substrate: Nα-benzoyl-DL-arginine-4-nitroanilide (prepared as 2 mM stock solution in DMF and further diluted to 1.5 mM in assay buffer) were added to each well. The reaction was monitored by measuring the absorbance at 405 nm every 30 s for 30 min using SpectraMax M5 plate reader (Molecular Devices, Sunnyvale, CA, USA).

[8] = tested on: CDCP1 cleavage in MDA-MB-231 cells; experiment: Cleavage of CDCP1 in MDA-MB-231 cells (Western blot); format: cell-based; details: 72 h, different concentrations
Method: The experiment was performed by treating MDA-MB-231 cells with different concentrations of either kempopeptin B (2) or C (3) for 72 h (Figure 6A). Dexamethasone (Dex) 100 nM was used as a positive control.
Figure 6 The effect of kempopeptins B and C (2 and 3) on CDCP1 cleavage in MDA-MB-231. (A) MDA-MB-231 cells were treated for 72 h with different concentrations of the test compounds. Following 72 h, the lysates were collected and analyzed by Western blot. (B) MDA-MB-231 cells were treated at different time points with 100 µM of kempopeptin C (3). Following 6 h, 12 h and 24 h, the lysates were collected and analyzed by Western blot. Dexamethasone (Dex) was used as a positive control. (C) MDA-MB-231 cells treated for 24 h with different concentrations of 3 in the presence of 10 nM recombinant human matriptase. Cell lysates were harvested and analyzed by Western blot. (D) Densitometric analysis of the full-length, LMW of CDCP1 and actin bands in (C).
MDA-MB-231 cells (150,000 cells/well) were seeded in 12-well plates. After 24 h, the media were replaced, and cells were treated with different concentrations of inhibitors (2 or 3; prepared in DMSO), the solvent control or the positive control dexamethasone. Whole-cell protein lysates were collected after 6, 12, 24 and 72 h using PhosphoSafe lysis buffer (Novagen, Madison, USA) and the protein concentration measured using the BCA Protein Assay kit (Pierce; 23227; Thermofisher Scientific; Waltham, MA, USA). Twenty micrograms of protein were separated by SDS-PAGE, transferred to polyvinylidene difluoride (PVDF) membranes, probed with CDCP1 antibody (Cell Signaling; 4115S) and detected with SuperSignal West Femto Maximum Sensitivity Substrate (Pierce).

[9] = biological target: T2, recombinant human matriptase (Homo sapiens, UniProt Q9Y5Y6); experiment: Matriptase inhibition assay; format: biochemical; details: mean ± SD, n = 3; 15-min preincubation; read-out: IC50 against matriptase
T2 construct: purchased R&D Systems 3946-SE-010
T2 sequence (Q9Y5Y6 615-855 limits assumed): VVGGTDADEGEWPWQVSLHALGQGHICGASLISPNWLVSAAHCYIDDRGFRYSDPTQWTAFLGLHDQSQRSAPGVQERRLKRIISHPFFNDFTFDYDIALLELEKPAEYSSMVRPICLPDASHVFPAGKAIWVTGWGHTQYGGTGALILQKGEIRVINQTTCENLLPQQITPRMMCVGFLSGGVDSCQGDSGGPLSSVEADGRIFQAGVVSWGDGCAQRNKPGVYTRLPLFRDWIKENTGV
Method: In matriptase inhibition assay, 50 µL of recombinant human matriptase (R&D Systems, Minneapolis, MN, USA; 3946-SE-010) ([…] prepared in assay buffer: 50 mM Tris, 50 mM NaCl, 0.01% Tween 20; pH 9.0) and 1 µL of different concentrations of inhibitors (2 and 3; half log dilutions prepared in DMSO) or the solvent control were pre-incubated at room temperature for 15 min. Following the incubation period, 50 µL of the 50 µM substrate solution (Boc-Gln-Ala-Arg-AMC) (R&D Systems, Minneapolis, MN, USA; ES014) were added to each well, and the enzyme activity was monitored by measuring the increase in fluorescence signal from the fluorescently-labeled substrate every 30 s for 30 min (Ex 380 nm, Em 460 nm) using the SpectraMax M5 plate reader (Molecular Devices).

[10] = biological target: T3, plasmin from human plasma (Homo sapiens, UniProt P00747); experiment: Plasmin inhibition assay; format: biochemical; details: mean ± SD, n = 3; 30-min preincubation; read-out: IC50 against plasmin
T3 construct: purchased Sigma P1867; host or cells: human plasma
T3 sequence (P00747 581-810 limits assumed): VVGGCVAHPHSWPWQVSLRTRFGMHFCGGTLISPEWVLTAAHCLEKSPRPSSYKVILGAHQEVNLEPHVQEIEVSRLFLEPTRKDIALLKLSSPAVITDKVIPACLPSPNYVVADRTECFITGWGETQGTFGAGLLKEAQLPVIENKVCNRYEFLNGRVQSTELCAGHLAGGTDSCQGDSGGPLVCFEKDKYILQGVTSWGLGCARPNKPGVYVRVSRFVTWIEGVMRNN
T3 sequence (P00747 98-580 partner limits assumed): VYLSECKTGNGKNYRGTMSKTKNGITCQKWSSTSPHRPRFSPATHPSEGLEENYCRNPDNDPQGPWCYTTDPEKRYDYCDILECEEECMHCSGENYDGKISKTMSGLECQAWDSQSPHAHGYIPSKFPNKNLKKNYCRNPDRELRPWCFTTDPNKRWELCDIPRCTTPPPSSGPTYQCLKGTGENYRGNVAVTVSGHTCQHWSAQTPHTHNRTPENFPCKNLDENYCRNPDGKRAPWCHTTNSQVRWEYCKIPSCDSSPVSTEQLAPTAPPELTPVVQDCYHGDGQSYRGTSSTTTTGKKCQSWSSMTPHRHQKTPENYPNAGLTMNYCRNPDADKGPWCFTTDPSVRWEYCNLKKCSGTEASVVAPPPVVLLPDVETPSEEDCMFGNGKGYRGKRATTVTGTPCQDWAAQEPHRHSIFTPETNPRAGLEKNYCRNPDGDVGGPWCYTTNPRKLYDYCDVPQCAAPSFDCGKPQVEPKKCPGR
Method: The plasmin inhibition assay was carried out by incubating 5 µL of […] plasmin from human plasma (P1867, Sigma, St. Louis, MO, USA) with 1 µL of different concentrations of inhibitors (2 and 3; half log dilutions prepared in DMSO) or the solvent control in the presence of 89 µL assay buffer (0.05 M Tris-HCl, pH 8.9). After a 30-min incubation time, 5 µL of 1.7 mM substrate solution (N-p-Tosyl-D-Gly-Pro-Lys-4-nitroanilide acetate salt; prepared in assay buffer) were added to each well. The reaction was monitored by measuring the absorbance at 405 nm every 30 s for 30 min using the SpectraMax M5 plate reader (Molecular Devices).

SMILES: CC(C)C[C@@H](NC(=O)[C@H](O)COS(=O)(=O)O)C(=O)N[C@@H]1C(=O)N[C@@H](CCCNC(=N)N)C(=O)N[C@H]2CC[C@@H](O)N(C2=O)[C@@H](CC(C)C)C(=O)N(C)[C@@H](Cc2ccc(O)cc2)C(=O)N[C@@H](C(C)C)C(=O)O[C@@H]1C [Compound A90720A, A90720A]
- IC50 [1]: ~10 nM

SMILES: CCCCCC(=O)N[C@@H](CCC(=O)O)C(=O)N[C@@H]1C(=O)N[C@@H](CCCNC(=N)N)C(=O)N[C@H]2CC[C@@H](O)N(C2=O)[C@@H](Cc2ccccc2)C(=O)N(C)[C@@H](Cc2ccc(O)cc2)C(=O)N[C@@H](C(C)C)C(=O)O[C@@H]1C [Cyanopeptolin 1020, cyanopeptolin 1020]
- IC50 [1]: 0.67 nM
- IC50 [2]: ~490 nM

SMILES: C[C@@H]1C[C@H]2[C@@H]3CCC4=CC(=O)C=C[C@]4(C)[C@@]3(F)[C@@H](O)C[C@]2(C)[C@@]1(O)C(=O)CO [Dexamethasone]
- Effect on cleavage of full-length CDCP1 [3]: blocks the cleavage of the full-length CDCP1

SMILES: CC(=O)N1CCC[C@H]1C(=O)N[C@H](C(=O)N[C@@H]1C(=O)N[C@@H](CC(C)C)C(=O)N[C@H]2CC[C@@H](O)N(C2=O)[C@@H](Cc2ccccc2)C(=O)N(C)[C@@H](Cc2ccc(O)cc2)C(=O)N[C@@H](C(C)C)C(=O)O[C@@H]1C)[C@@H](C)O [Kempopeptin A, kempopeptin A]
- IC50 ([4]; read-out: IC50 chymotrypsin inhibition): 2600 nM
- IC50 ([5]; read-out: IC50 elastase inhibition): 320 nM

- IC50 [7]: 1490 ± 180 nM
- IC50 [9]: 1830 ± 190 nM
- IC50 [10]: 1050 ± 190 nM
SMILES: CCCC(=O)N[C@H](C(=O)N[C@@H]1C(=O)N[C@@H](CCCCN)C(=O)N[C@H]2CC[C@@H](O)N(C2=O)[C@@H]([C@@H](C)CC)C(=O)N(C)[C@@H](Cc2ccc(OC)c(Br)c2)C(=O)N[C@@H](C(C)C)C(=O)O[C@@H]1C)C(C)C [Kempopeptin B, kempopeptin B]
- viability at 48 h [6]: > 90%
- IC50 ([4]; read-out: IC50 against chymotrypsin): > 67000 nM
- Inhibition of CDCP1 cleavage in MDA-MB-231 [8]: No inhibition of CDCP1 cleavage was observed
- IC50 ([5]; read-out: IC50 against elastase): > 67000 nM

SMILES: CCCC(=O)N[C@@H](CCC(N)=O)C(=O)N[C@@H]1C(=O)N[C@@H](CCCNC(N)=O)C(=O)N[C@H]2CC[C@@H](O)N(C2=O)[C@@H]([C@@H](C)CC)C(=O)N(C)[C@@H](Cc2ccc(OC)c(Br)c2)C(=O)N[C@@H](C(C)C)C(=O)O[C@@H]1C [Symplocamide A, symplocamide A]
- IC50 [1]: ~80000 nM
